The structures appear in SMILES notation. Like-named read-outs stand apart in the source and are kept apart here. Some results are limits rather than exact numbers.

As usually defined, the Ki is a dissociation constant, usually derived from enzyme kinetics or from competition with a known ligand. The IC50 is the midpoint of a concentration-inhibition curve.

The target of data set [1] is T1, α3β4 nAChR (Rattus norvegicus, UniProt P04757+P12392).
T1 construct: expressed in transfected cells; host or cells: HEK 293 (KXα3β4R2)
As to the kind of experiment: [3H]-epibatidine radioligand competition binding assay. The protocol:
(§1) Stably transfected cell lines, tissue culture conditions, membrane preparation procedures and binding assays were described previously. Briefly, cultured cells at >80% confluence were removed from their flasks (80 cm^2) with a disposable cell scraper and placed in 10 mL of 50 mM Tris.HCl buffer (pH 7.4, 4° C.). The cell suspension was centrifuged at 10,000×g for 5 min and the pellet was collected. The cell pellet was then homogenized in 10 mL buffer with a polytron homogenizer and centrifuged at 36,000 g for 10 min at 4° C. The membrane pellet was resuspended in fresh buffer, and aliquots of the membrane preparation were used for binding assays. The concentration of [^3H]-epibatidine used was ˜500 pM for competition binding assays. […] Bound and free ligands were separated by vacuum filtration through Whatman GF/C filters treated with 0.5% polyethylenimine. The filter-retained radioactivity was measured by liquid scintillation counting. Specific binding was defined as the difference between total binding and nonspecific binding. Data from competition binding assays were analyzed using Prism 5 (GraphPad Software, San Diego, Calif.).
(§2) The in vitro binding affinities of the new ligands were measured for defined receptor subtypes (α2β2, α2β4, α3β2, α3β4, α4β2, α4β4, α6β2, α6β4, and α7) expressed in stably transfected cell lines. [^3H]Epibatidine ([^3H]EB) binds to the agonist recognition site of all of the defined receptor subtypes with high affinities. Rat forebrain homogenates were included to allow comparison between the heterologous and native α4β2 and α7 nAChRs. See FIG. 18 for binding affinity values (Ki) of the ligands at the three major nAChR subtypes (α3β4, […], and α7).
(§3) The binding affinities of all compounds synthesized for the receptor subtypes were examined in binding competition studies against [^3H]-epibatidine.
A general note: Loss of bound radioactivity is the signal in a displacement assay; it reports binding, not function.

Data set [2] has as its target T2, α4β2 nAChR (Rattus norvegicus, UniProt P09483+P12390).
T2 construct: expressed in transfected cells
The description is as above. Here is the method:
as §1, §2, §3

Data set [3] addresses T3, α7 nAChR (Rattus norvegicus, UniProt Q05941).
T3 construct: expressed in transfected cells
The data set is described as above. To be noted: competition against [3H]-epibatidine. The protocol:
as §1, §2, §3

The test system of data set [4] is nicotine self-administration. To be noted: subcutaneous, previous studies; cited from earlier work.
The target of data set [5] is T4, rat α3β4 nAChRs (Rattus norvegicus, UniProt P04757+P12392).
T4 construct: expressed in transfected cells; host or cells: HEK 293 (KXα3β4R2)
The data set is described as follows: 86Rb+ efflux assay in stably transfected cells. The class given is cell-based. To be noted: for agonist activity at α3β4 nAChRs: 86Rb+ efflux, rat α3β4; for IC50: 10 min pre-treatment before 100 μM (−)-nicotine, read-out: IC50(10′) α3β4 (desensitization potency). The protocol: (§4) The cell line expressing rat α3β4 nAChRs, KXα3β4R2, was established previously by stably transfecting HEK 293 cells with combinations of rat nAChR α3 and β4 subunit genes. The cell line expressing human α4β2 nAChRs, YXα4β2H1, were established recently (Tuan et al., 2012, manuscript in preparation). These cell lines were maintained in minimum essential medium (MEM) supplemented with 10% fetal bovine serum, 100 units/mL penicillin G, […] streptomycin and selective antibiotics at 37° C. with 5% CO2 in a humidified incubator. Tissue culture medium and antibiotics were obtained from Invitrogen Corporation (Carlsbad, Calif.), unless otherwise stated. Fetal bovine serum and horse serum were provided by Gemini Bio-Products (Woodland, Calif.).
(§5) Functional properties of compounds at nAChRs expressed in the transfected cells were measured using ^86Rb^+ efflux assays as described previously. In brief, cells were plated into 24-well plates coated with poly-D-lysine. The plated cells were grown at 37° C. for 18 to 24 hour to reach 85-95% confluence. The cells were then incubated in growth medium (0.5 mL/well) containing ^86Rb^+ (2 μCi/mL) for 4 hour at 37° C. The loading mixture was then aspirated, and the cells were washed four times with 1 mL buffer (15 mM HEPES, 140 mM NaCl, 2 mM KCl, 1 mM MgSO4, 1.8 mM CaCl2, 11 mM Glucose, pH 7.4). One mL of buffer with or without compounds to be tested was then added to each well. After incubation for 2 min, the assay buffer was collected for measurements of ^86Rb^+ released from the cells. Cells were then lysed by adding 1 mL of 100 mM NaOH to each well, and the lysate was collected for determination of the amount of ^86Rb^+ that was in the cells at the end of the efflux assay. Radioactivity of assay samples and lysates was measured by liquid scintillation counting. Total loading (cpm) was calculated as the sum of the assay sample and the lysate of each well. The amount of ^86Rb^+ efflux was expressed as a percentage of ^86Rb^+ loaded. […] For obtaining EC50 and Emax values, stimulation curves were constructed in which 8 different concentrations of a ligand were included in the assay. […] EC50, Emax and IC50(10′) values were determined by nonlinear least-squares regression analyses (GraphPad, San Diego, Calif.).
(§6) Functional properties of the new ligands were determined by ^86Rb^1 efflux assays in cells expressing α3β4 and α4β2 nAChR subtypes. Functional activity of each new ligand was measured in terms of its agonism, antagonism and desensitization ability.
(§7) Agonist activity of each of the ligands was tested at eight concentrations. […] The full concentration-effect curves generated potency (EC50) and efficacy (Emax) of each ligand.
(§8) Though the ^86Rb^+ efflux assays were the main methodology used to determine functional properties, whole-cell current measurements were also used to verify the key experiments.

Data set [6] concerns the target T5, human α4β2 nAChRs (Homo sapiens, UniProt P17787+P43681).
T5 construct: expressed in transfected cells
The data set is described as follows: 86Rb+ efflux assay in stably transfected cells. The class given is cell-based. To be noted: for IC50: 10 min pre-treatment before 100 μM (−)-nicotine, read-out: IC50(10′) α4β2 (desensitization potency). Here is the method:
as §4, §5, §6, §7, §8

For data set [7] the following is noted: human, in vivo; cited from earlier work.
[8] abbreviates: competition against [3H]-epibatidine, stably transfected cell membranes, read-out: Ki α3β4.
The mark [9] stands for this setting: competition against [3H]-epibatidine, stably transfected cell membranes, read-out: Ki α4β2.
Where [10] appears, read: preincubated with the cells for 10 min.

As for `Clc1cccc(C#Cc2cncc(OC[C@@H]3CCN3)c2)c1` [VMY-2-127, (S)-3-(azetidin-2-ylmethoxy)-5-((3-chlorophenyl)ethynyl)pyridine], the Ki in data set [1] (setting [8]) came to 3.4 µM; in data set [2], 0.093 nM; in data set [3], 0.48 µM.
Turning to `Cc1cccc(C#Cc2cncc(OC[C@@H]3CCN3)c2)c1` [VMY-2-123, (S)-3-(azetidin-2-ylmethoxy)-5-(m-tolylethynyl)pyridine], the Ki in data set [1] (setting [8]) was 4 µM; in data set [2] it was 0.046 nM; in data set [3], 0.2 µM. Also, the “selectivity for α4β2 receptors over α3β4 receptors (Ki ratio)” value in data set [2] is on record as 87,000 times.
In the case of `FC(F)(F)c1cccc(C#Cc2cncc(OC[C@@H]3CCN3)c2)c1` [VMY-2-117, (S)-3-(azetidin-2-ylmethoxy)-5-((3-(trifluoromethyl)phenyl)ethynyl)pyridine], the Ki in data set [1] (setting [8]) came out at 1.4 µM; in data set [2], 0.26 nM; in data set [3], 1.3 µM. Moreover, the “selectivity for α4β2 receptors over α3β4 receptors (Ki ratio)” value in data set [2] was 5,400 times.
As to `OCCCCC#Cc1cncc(OC[C@@H]2CCN2)c1` [Sazetidine-A, reference compound], the “lowest effective dose reducing nicotine self-administration” value in data set [4] was 3 mg/kg. For the same molecule, the Ki turned out to be 1.9 µM in data set [1] (setting [8]), 0.062 nM in data set [2] (setting [9]) and 1.6 µM in data set [3]. The “agonist activity at α3β4 nAChRs” value in data set [5] is “does not show agonist activity”. The IC50 was above 10 µM in data set [5], 0.012 µM in data set [6] (listed as Saz-A) and 0.0075 µM in data set [6]. Besides, in data set [5] (concentrations up to 10 μM), the “effect on the function of rat α3β4 nAChRs” value is “had no effect”. For the same molecule, in data set [6] (setting [10]), the “inhibition of nicotine activation of α4β2 receptors” value (“inhibition” for short) is listed as “inhibited”.
With `Fc1cccc(C#Cc2cncc(OC[C@@H]3CCN3)c2)c1` [VMY-2-109, (S)-3-(azetidin-2-ylmethoxy)-5-((3-fluorophenyl)ethynyl)pyridine], the Ki is 0.52 µM in data set [1] (setting [8]), 0.032 nM in data set [2] and 0.72 µM in data set [3]. The IC50 in data set [6] was found to be 0.013 µM.
Take `C(#Cc1cncc(OCC2CCC2)c1)c1ccccc1` [VMY-2-161, 3-(cyclobutylmethoxy)-5-(phenylethynyl)pyridine]: the Ki in data set [1] (setting [8]) is 1300 µM; in data set [2] (setting [9]), 160000 nM; in data set [3], 410 µM. Moreover, the results for the 50% inhibitory concentration (IC50) in data set [5] and in data set [6] were above 100 µM and 35 µM, respectively.
For `Fc1ccccc1C#Cc1cncc(OC[C@@H]2CCN2)c1` [VMY-2-105, (S)-3-(azetidin-2-ylmethoxy)-5-((2-fluorophenyl)ethynyl)pyridine], the Ki turned out to be 0.58 µM in data set [1] (setting [8]), 0.072 nM in data set [2] and 1.1 µM in data set [3]. Also, in data set [6], the IC50 came out at 0.02 µM.
`CCCNCCOc1cncc(C#Cc2ccccc2)c1` [VMY-2-177, N-(2-(5-(phenylethynyl)pyridin-3-yloxy)ethyl)propan-1-amine]: the results for the Ki in data set [1] (setting [8]), in data set [2] (setting [9]) and in data set [3] were 850 µM, 1100 nM and 48 µM, respectively. Moreover, the IC50 came to 12 µM in data set [5] and 15 µM in data set [6].
As for `c1cnc2cc3c(cc2n1)[C@@H]1CNC[C@H]3C1` [varenicline, reference compound], the “agonist activity at α3β4 nAChRs” value in data set [5] is listed as “near-full agonist activity”. Besides, the “agonist activity at α4β2 receptors” value in data set [6] (86Rb+ efflux, human α4β2) is “partial agonist activity”. For the same molecule, the “inhibition” value in data set [6] (setting [10]) is “inhibited”. Moreover, in data set [7], the “participants in clinical trials who reported nausea” value was around 30%, the “participants in clinical trials who reported vomiting” value is recorded as 18% and the “percentage of subjects who remained smoke-free for 12 months following treatment” value is reported as around 22%.
For `CN1CC[C@H]1COc1cncc(C#Cc2ccccc2)c1` [VMY-2-205, (S)-3-((1-methylazetidin-2-yl)methoxy)-5-(phenylethynyl)pyridine], the Ki in data set [1] (setting [8]) came out at 40 µM; in data set [2], 1.2 nM; in data set [3], 7.7 µM. Also, the “binding weaker than VMY-2-95 (fold)” value in data set [2] (α4β2 binding affinity relative to (S)-N-H VMY-2-95) is given as around 25 times. Also, the IC50 in data set [5] came out at 22 µM; in data set [6] it was 0.37 µM.
For the molecule `Cc1cc(F)cc(C#Cc2cncc(OC[C@@H]3CCN3)c2)c1` [VMY-2-135, (S)-3-(azetidin-2-ylmethoxy)-5-((3-fluoro-5-methylphenyl)ethynyl)pyridine], the Ki in data set [1] (setting [8]) came to 1.1 µM; in data set [2], 0.043 nM; in data set [3], 0.59 µM.
With `COc1cc(F)cc(C#Cc2cncc(OC[C@@H]3CCN3)c2)c1` [VMY-2-139, (S)-3-(azetidin-2-ylmethoxy)-5-((3-fluoro-5-methoxyphenyl)ethynyl)pyridine], the Ki in data set [1] (setting [8]) is 1.3 µM; in data set [2], 0.076 nM; in data set [3] it was 1.5 µM.
As for `Fc1cc(F)cc(C#Cc2cncc(OC[C@@H]3CCN3)c2)c1` [VMY-2-113, (S)-3-(azetidin-2-ylmethoxy)-5-((3,5-difluorophenyl)ethynyl)pyridine], the Ki worked out at 1.4 µM in data set [1], 0.05 nM in data set [2] and 1.8 µM in data set [3].
With `CN1CCCC1c1cccnc1` (centres unmarked) [nicotine, reference compound], the “inhibition” value in data set [6] was “inhibited”.
For `Fc1ccc(C#Cc2cncc(OC[C@@H]3CCN3)c2)cc1` [VMY-2-101, (S)-3-(azetidin-2-ylmethoxy)-5-((4-fluorophenyl)ethynyl)pyridine], the Ki in data set [1] (setting [8]) was 0.65 µM; in data set [2], 0.083 nM; in data set [3] it was 2 µM. In data set [6], the half-inhibitory concentration (IC50) is 0.008 µM.
`CN(C)c1cc(F)cc(C#Cc2cncc(OC[C@@H]3CCN3)c2)c1` [VMY-2-131, (S)-3-((5-(azetidin-2-ylmethoxy)pyridin-3-yl)ethynyl)-5-fluoro-N,N-dimethylaniline]: the Ki was found to be 1 µM in data set [1] (setting [8]), 0.031 nM in data set [2] and 0.25 µM in data set [3].
On to `C(#Cc1cncc(OC[C@H]2CCN2)c1)c1ccccc1` [VMY-2-191, (R)-3-(azetidin-2-ylmethoxy)-5-(phenylethynyl)pyridine], for which the values for the Ki in data set [1] (setting [8]), in data set [2] (setting [9]) and in data set [3] were 1.7 µM, 0.11 nM and 1.6 µM, respectively.

Values taken from US9994548B2, “Phenyl-substituted nicotinic ligands, and methods of use thereof” (Georgetown University, priority 2011, dated 2018).
